This is an account of results in paper PMC6278366, “Synthesis and Evaluation of Anticancer Activities of Novel C-28 Guanidine-Functionalized Triterpene Acid Derivatives” (Molecules, 2018).

Usually IC50 stands for the concentration needed to halve the response being measured.

Counter-ions that a name gives are not always drawn.

What all share (assay type): cell-based, human
Assay [1] relates to U937 (histiocytic lymphoma) cells. Description: Cytotoxicity assay (7-AAD viability, flow cytometry), U937. Conditions: Homo sapiens, U-937, mean ± SE, at least three experiments in duplicate; viable cells; read-out: IC50 U937. The method in brief:
(§1)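 Suspension lines in RPMI 1640 with 10% FBS at 37 °C, 5% CO2, treated with compounds at 1, 5, 10, 15, 30 and 60 μM. Live/dead status by 7-AAD staining (15 min, room temperature, dark) read on flow cytometer, 488 nm excitation, 675/30 nm emission.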

In assay [2] the test system is K562 (chronic myeloid leukemia) cells. In words: Cytotoxicity assay (7-AAD viability, flow cytometry), K562. Conditions: Homo sapiens, K562, mean ± SE, at least three experiments in duplicate; viable cells; read-out: IC50 K562. In outline:
as §1
(In flow cytometry, cells or beads pass a laser one at a time.)

For assay [3], the system named is Jurkat cells. In words: Annexin V/7-AAD apoptosis assay by flow cytometry. As to conditions: 48 h. The procedure: Apoptosis was determined by flow cytometric analysis of Annexin V and 7-aminoactinomycin D staining. Briefly, 200 μL of Guava Nexin reagent (Millipore, Bedford, MA, USA) was added to 5 × 10^5 cells in 200 μL, and the cells were incubated with the reagent for 20 min at room temperature in the dark. […] At the end of incubation, the cells were analyzed on NovoCyteTM 2000 FlowCytometry System (ACEA). Different states of cell death were defined as follows: normal cells are localized in the lower-left quadrant (Annexin V^−/PI^−); early apoptotic cells are in the lower-right quadrant (Annexin V^+/PI^−); late apoptotic cells and necrotic cells are in the upper-right quadrant (Annexin V^+/PI^+); and necrotic cells are in the upper-left quadrant (Annexin V^−/PI^+).
Figure 2 AnnexinV/7-AAD staining upon induction of apoptosis in Jurkat cells. […] Then, the cells were harvested, stained with Annexin V/7-AAD and analyzed by flow cytometry. The experiments were performed three times, and the results of the representative experiments are shown. The first cytogram represents an untreated cell sample (A); after incubation with dihydrobetulinic acid for 24 h (B) and for 48 h (C); after incubation with compound 15 for 24 h (D) and for 48 h (E); after incubation with compound 15c for 24 h (F) and for 48 h (G); after incubation with compound 18c for 24 h (H) and for 48 h (I); after incubation with compound 20c for 24 h (J) and for 48 h (K). Q7-1, necrotic cells; Q7-2, late apoptotic cells; Q7-3, living cells; Q7-4, early apoptotic cells. TEXT PRINTED IN THE PICTURE: (B) Dihydro BA: Q7-1 0.96% (59 μM); Q7-2 12.11% (59 μM); Q7-3 80.09% (59 μM); Q7-4 6.84% (59 μM) | (C) Dihydro BA: Q7-1 2.34% (59 μM); Q7-2 20.53% (59 μM); Q7-3 73.11% (59 μM); Q7-4 4.02% (59 μM) | (D) Compound 15: Q7-1 3.08% (4 μM); Q7-2 2.24% (4 μM); Q7-3 92.34% (4 μM); Q7-4 2.34% (4 μM) | (E) Compound 15: Q7-1 5.53% (4 μM); Q7-2 91.79% (4 μM); Q7-3 0.58% (4 μM); Q7-4 2.10% (4 μM) | (F) Compound 15c: Q7-1 1.51% (4 μM); Q7-2 2.64% (4 μM); Q7-3 84.92% (4 μM); Q7-4 10.93% (4 μM) | (G) Compound 15c: Q7-1 21.72% (4 μM); Q7-2 16.54% (4 μM); Q7-3 54.49% (4 μM); Q7-4 7.25% (4 μM) | (H) Compound 18c: Q7-1 1.48% (4 μM); Q7-2 3.70% (4 μM); Q7-3 91.14% (4 μM); Q7-4 3.67% (4 μM) | (I) Compound 18c: Q7-1 20.73% (4 μM); Q7-2 14.32% (4 μM); Q7-3 58.16% (4 μM); Q7-4 6.79% (4 μM) | (J) Compound 20c: Q7-1 3.78% (8 μM); Q7-2 1.72% (8 μM); Q7-3 92.26% (8 μM); Q7-4 2.24% (8 μM) | (K) Compound 20c: Q7-1 6.09% (8 μM); Q7-2 7.35% (8 μM); Q7-3 78.36% (8 μM); Q7-4 8.20% (8 μM) DOUBTS OF THE COPYIST ABOUT THIS PICTURE: Panel A (Control, untreated cells: Q7-1 3.75%, Q7-2 0.00%, Q7-3 96.24%, Q7-4 0.01%) left out of lines because it is not a substance / Dihydro BA panel B, Q7-3: 80.09% partly overlaid by plot points, 80.09 or 80.03 / Dihydro BA panel C, Q7-3: 73.11% partly overlaid by plot points / Compound 18c panel I, Q7-3: 58.16% small print, 58.16 or 58.18 / Compound 15 panel E, Q7-3: 0.58% small print, 0.58 or 0.56

The mark [4] stands for this setting: at IC50 concentration (59 μM Dihydro BA; 4 μM 15, 15c, 18c; 8 μM 20c).

For the compound `CC(=O)O[C@H]1CC[C@@]2(C)C(CC[C@]3(C)C2CCC2C4C(C(C)C)CC[C@]4(C(=O)OCC(CO)(CO)NC(=N)N)CC[C@]23C)C1(C)C` (stereo partly drawn) [Compound 15c, 3β-[2-Guanidine-3-hydroxy-2-(hydroxymethyl)propyl]-3-O-acetyl-lupane-28-oate hydrochloride], the IC50 in assay [1] was determined as 15 ± 0.23 µM. The IC50 in assay [2] stood at 2.3 ± 0.34 µM. Further, in assay [3] (setting [4]), the “early apoptotic cells (Q7-4)” value is reported as 7.2%, the “late apoptotic cells (Q7-2)” value amounted to 16.5%, the “living (vital) cells (Q7-3)” value amounted to 54.5% and the “necrotic cells (Q7-1)” value came to 21.7%. Also, the “total number of apoptotic cells (early + late)” value in assay [3] (at IC50 concentration (59 μM Dihydro BA; 4 μM 15c; 8 μM 20c)) stood at 23.7%.

`CC(=O)O[C@H]1CC[C@@]2(C)C(CC[C@]3(C)C2CCC2C4C(C(C)C)CC[C@]4(C(=O)OCC(N)(CO)CO)CC[C@]23C)C1(C)C` (stereo partly drawn) [Compound 15, 3β-[2-Amino-3-hydroxy-2-(hydroxymethyl)propyl]-3-O-acetyl-lupane-28-oate]: the IC50 in assay [1] worked out at 6.6 ± 0.23 µM; in assay [2] it was 2.1 ± 0.13 µM. Moreover, the “late apoptotic cells (Q7-2)” value in assay [3] (setting [4]) was 91.7%.
